For series [1], the system named is nuclear receptors related to VDR. Description: panel of uniform Gal4‐NR hybrid reporter gene assays (selectivity). The class given is cell-based, human. To be noted: 1 µM; both (E)‐ and (Z)‐configuration; (Z) maintained with Cell‐Disco (370 nm). The procedure:
(§1) FIGURE 2 Development and characterization of the light‐activated vitamin D mimetic photo‐vitD (10). (a) Structure activity relationship of photo‐switchable VDR agonists 4–10. Compounds were tested in a cellular Gal4‐VDR hybrid reporter gene assay. Relative activation is normalized to the effect of 2 (1 µM) set as 100% activation. The (Z)‐states of the compounds were maintained with a Cell‐Disco [24] (370 nm). […] Data in agonist (EC50) and antagonist mode (IC50; vs. 0.3 µM 2) are shown for (E)‐ and (Z)‐10. The corresponding dose‐response curves are shown in (d). (b) Predicted binding mode of (E)‐7 (green) in the VDR ligand binding site (pdb ID 4g1d). […] (c) Predicted binding mode of (Z)‐10 (yellow) in the VDR ligand binding site. The altered regiochemistry conveys strong preference for the light‐induced (Z)‐configuration and the extended naphthoic acid motif enables a strong ionic contact to R302. (d) Dose‐response curves of (E)‐ (dark) and (Z)‐10 (370 nm) in the Gal4‐VDR reporter gene assay in agonist (top) and antagonist mode (bottom, with 0.3 µM calcitriol (2)). (Z)‐10 activated VDR; (E)‐10 and (Z)‐10 antagonized VDR activation by 0.3 µM calcitriol (2). (Z)‐10 was maintained with a Cell‐Disco [24] (370 nm). […] Absorbance was measured at 351 nm with a 25 µM solution in DMSO, one cycle is 30 sec. […] (E)/(Z) ratios were measured by NMR. […]

Series [2] has as its target T1, VDR (Homo sapiens, UniProt P11473).
T1 construct: -CMV-VDR-LBD coding for the hinge region and; expressed in transfected cells; host or cells: HEK293T
T1 sequence (P11473 127-423 limits assumed): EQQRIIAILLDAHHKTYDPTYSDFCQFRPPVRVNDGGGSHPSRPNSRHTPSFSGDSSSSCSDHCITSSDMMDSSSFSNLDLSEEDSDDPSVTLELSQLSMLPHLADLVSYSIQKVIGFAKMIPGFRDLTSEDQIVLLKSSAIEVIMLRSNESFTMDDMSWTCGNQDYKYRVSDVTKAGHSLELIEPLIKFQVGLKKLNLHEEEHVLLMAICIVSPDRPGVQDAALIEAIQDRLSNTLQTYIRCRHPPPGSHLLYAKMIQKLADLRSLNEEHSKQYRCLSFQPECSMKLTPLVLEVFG
Description: Gal4‐VDR hybrid reporter gene assay, agonist mode. It counts as cell-based. The conditions noted are these: HEK293T cells, mean±S.E.M., n≥3. The procedure: FIGURE 2 Development and characterization of the light‐activated vitamin D mimetic photo‐vitD (10). (a) Structure activity relationship of photo‐switchable VDR agonists 4–10. Compounds were tested in a cellular Gal4‐VDR hybrid reporter gene assay. Relative activation is normalized to the effect of 2 (1 µM) set as 100% activation. The (Z)‐states of the compounds were maintained with a Cell‐Disco [24] (370 nm). […] Data in agonist (EC50) and antagonist mode (IC50; vs. 0.3 µM 2) are shown for (E)‐ and (Z)‐10. The corresponding dose‐response curves are shown in (d). (b) Predicted binding mode of (E)‐7 (green) in the VDR ligand binding site (pdb ID 4g1d). […] (c) Predicted binding mode of (Z)‐10 (yellow) in the VDR ligand binding site. The altered regiochemistry conveys strong preference for the light‐induced (Z)‐configuration and the extended naphthoic acid motif enables a strong ionic contact to R302. (d) Dose‐response curves of (E)‐ (dark) and (Z)‐10 (370 nm) in the Gal4‐VDR reporter gene assay in agonist (top) and antagonist mode (bottom, with 0.3 µM calcitriol (2)). (Z)‐10 activated VDR; (E)‐10 and (Z)‐10 antagonized VDR activation by 0.3 µM calcitriol (2). (Z)‐10 was maintained with a Cell‐Disco [24] (370 nm). Data are the mean±S.E.M. relative VDR act. vs. 0.3 µM calcitriol (2), n≥3. (e) Activity profile of 10 (1 µM) on nuclear receptors showing exclusive VDR activation by the light‐activated state. 10 was tested in a panel of uniform Gal4‐NR hybrid reporter gene assays. (Z)‐10 was maintained with a Cell‐Disco [24] (370 nm). Data are the mean±SD, n = 3. (f) Representative UV/Vis spectra of 10 as (E)‐ (dark) and (Z)‐states (PSS 365 nm), and after switching back to (E) with 465 nm. (g) (E)/(Z)‐ratios of 10 in the dark‐adapted state, after illumination at 365 nm for 5 min and after switching back from mostly‐(Z) with 465 nm for 5 min. (h) 10 could be rapidly and reversibly switched between the (E)‐ and (Z)‐states over multiple cycles by alternating irradiation at 365 and 465 nm. Absorbance was measured at 351 nm with a 25 µM solution in DMSO, one cycle is 30 sec. […] 10 was pre‐illuminated at 365 nm for 30 min and then kept in the dark. (E)/(Z) ratios were measured by NMR. (j) Binding mode prediction of (E)‐ and (Z)‐10 to the VDR‐antagonist complex 2zxm (residues numbered according to [21]). (Z)‐10 (yellow) forms an agonist‐like binding mode with several polar interactions at both ends of the pocket. (E)‐10 (cyan) is also anchored at the distal end of the pocket by an H‐bond network with R302 and the D176 backbone but due to the (E)‐configuration, the β‐naphthoic acid residue protrudes deeper and the pentan‐3‐ol motif rotates away from H333/H423. Therefore, (E)‐10 lacks stabilizing/activating contacts with the H333/H423 region rationalizing its antagonist properties.
Gal4-hybrid reporter gene assays. Reporter gene assays were performed in HEK293T cells (German Collection of Microorganisms and Cell Culture GmbH, DSMZ) as reported previously using Gal4 -NR LBD fusion receptor plasmids each coding for the hinge region and LBD of the canonical isoform of the respective human nuclear receptor.[7,8] pFR-Luc (Stratagene, La Jolla, CA, USA) served as a reporter plasmid and pRL-SV40 (Promega, Madison, WI, USA) was used for normalization of transfection efficiency and test compound toxicity. Cells were cultured in Dulbecco’s modified Eagle’s medium (DMEM), high glucose supplemented with 10% fetal calf serum (FCS), sodium pyruvate (1 mM), penicillin (100 U/mL), and streptomycin (100 μg/mL) at 37 °C and 5% CO2, and seeded in 96-well plates (3 × 10^4 cells/well). After 24 h, the medium was changed to Opti -MEM without supplements, and cells were transiently transfected using Lipofectamine LTX reagent (Invitrogen, Carlsbad, CA, USA) according to the manufacturer’s protocol. Five hours after transfection, cells were incubated with the test compounds […]

Series [3] can be described thus: photophysical characterization (photo‐switching, thermal relaxation). The class given is physicochemical. The conditions noted are these: alternating irradiation at 365 and 465 nm; 25 µM solution in DMSO. Here is the method:
as §1

1 molecule from publication PMC13360702, “An Agonist/Antagonist Photo‐Switchable Vitamin D Mimetic Enables Bidirectional Optical Control of VDR” (Angewandte Chemie (International Ed. in English), 2026) can be followed below.

Each structure is given as a SMILES string. Where two headings read alike, the source gives them in different places.

The EC50 is the midpoint of the concentration-response curve. With `CCCc1cc(C(O)(CC)CC)ccc1-c1ccc(/N=N/c2ccc3cc(C(=O)O)ccc3c2)cc1C` [compound 10], in series [1], the “activity on nuclear receptors related to VDR” value is on record as “no activity”. Further, the 50% effective concentration (EC50) was 170 nM in series [2] ((Z)‐state maintained with Cell‐Disco (370 nm), read-out: VDR modulation light-activated (Z): EC50) and over 10000 nM in series [2] (dark‐adapted (E)‐state, read-out: VDR modulation dark (E): EC50). The “reversible switching between (E)‐ and (Z)‐states over multiple cycles” value in series [3] is on record as “no fatigue”.
